Experimental data from patent US20260144769A1, “4-PHENYLBUTYRATE RESTORED GABA UPTAKE AND REDUCED SEIZURES IN SLC6A1 VARIANT-MEDIATED DISORDERS” (Vanderbilt University, priority 2022, published 2026).

Key:
[1] = tested on: GAT-1 in human iPSC-derived neurons; assay: 3H GABA uptake, human iPSC-derived neurons; assay type: cell-based; conditions: PBA treated human iPSC-derived neurons; PBA 2 mM, 24 hrs
Experimental: Live images of human neural progenitor cells (NPCs), astrocytes and GABAergic inhibitory neurons differentiated from the human induced pluripotent stem cells (iPSCs) on the day of experiment. […] The DMSO treated corrected or patient cells was taken as 1. […] GABA flux was measured after 30 min transport at room temperature. The influx of GABA, expressed in pmol/μg protein/min, was averaged from duplicates for each condition and for each transfection. The average counting was DMSO treated condition taken as 1. In FIG. 5B, FIG. 5D and FIG. 5F, 966 stands for CI-966 (50 μM) and 711 stands for NNC-711 (35 μM) that was applied 30 min to the astrocytes transfected with the wildtype GAT-1^YFP before preincubation and removed during preincubation. In FIGS. 5B and D, ***p<0.001 vs. corrected DMSO treated. § § <0.01, § § § p<0.001 vs. patient DMSO treated. […] In FIGS. 5B-E, n=4-8 batches of cells. In FIG. 5F, n=4-5 different transfections). Unpaired t test was used for FIG. 5C and FIG. 5E. […] Values were expressed as mean±S.E.M.). […]
Briefly, cells were cultured in […] dishes for 3 days before the GABA uptake experiment in DMEM with 10% fetal bovine serum and 1% penicillin/streptomycin. […] Glacial acetic acid was added, and lysates were then determined on a liquid scintillator with QuantaSmart. […]

neural progenitor cells = assay: GABA uptake in neural progenitor cells; assay type: cell-based; conditions: NPCs; data not shown
Experimental: NPCs were differentiated from iPSCs at passage 22-24 with differentiation of neural progenitor cells (NPCs) was induced by STEMdiff SMADi Neural induction kit from […]. iPSCs were seeded in a Geltrex coated dish at a density of ˜2×10^6 cells/per one 35 mm^2 dish or 6 well plate. The medium was refreshed daily, and the cells were passaged at day 5-7. NPCs at Passage 1 which was at least 10-12 days after neural induction were used for this study.
Briefly, cells were cultured in […] dishes for 3 days before the GABA uptake experiment in DMEM with 10% fetal bovine serum and 1% penicillin/streptomycin. The cells were then transfected with equal amounts of the wildtype or the mutant GAT-1 cDNAs (1 μg) for each condition at 24 hrs or 48 hrs after plating. GABA uptake assay was carried out 48 hrs after transfection. The cells were incubated with preincubation solution for 15 min and then incubated with preincubation solution containing 1 μci/mL 3H GABA and 10 μM unlabeled GABA for 30 min at room temperature. After washing, the cells were lysed with 0.25 N NaOH for 1 hr. Glacial acetic acid was added, and lysates were then determined on a liquid scintillator with QuantaSmart. The flux of GABA (pmol/μg/min) was averaged with at least triplets for each condition at each transfection. The average counting was taken as n=1. […]

## O=C(O)CCCc1ccccc1 [PBA, 4-phenylbutyric acid]
[1]
  increase of GABA uptake: ~20%
Neural progenitor cells
  GABA uptake in neural progenitor cells after PBA treatment: increase
